The record followed here is PMC7766762, “New Eudesmane-Type Sesquiterpene Glycosides from the Leaves of Aster koraiensis” (Plants, 2020).

In general, IC50 refers to the concentration needed to halve the response being measured. Low readings indicate greater potency, high ones weaker potency. A word on the inhibition: it is how much of the control response was suppressed. A word on the melting point: it is the temperature, or range, at which the solid turns liquid.

Data set [1] in a line: Cell viability (MTT assay) in LPS-treated RAW 264.7 macrophages. The data set is classed as cell-based. To be noted: mouse, RAW 264.7 macrophages treated with LPS, compound 100 μM and LPS 1 μg/mL, pretreated 1 h, incubated 24 h, read-out: Cell Viabilities (%). How it is done: [table] Cell viability and nitrite levels were measured using MTT and Griess reaction assays, respectively.
On the technique in general: Tetrazolium dyes change colour on reduction, which living cells bring about.

Data set [2] relates to LPS-stimulated PGE2 production in RAW 264.7 macrophages. Kind of data set: LPS-induced PGE2 production in RAW 264.7 macrophages (EIA kit). The data set is classed as cell-based. The following applies: for IC50 / inhibition at 100 µM: Mus musculus, RAW264.7, RAW 264.7; for IC50: LPS 1 μg/mL, 24 h; for inhibition at 100 µM: compound 100 μM and LPS 1 μg/mL, pretreated 1 h, incubated 24 h, read-out: Inhibition Rate (%) PGE2. The protocol:
(§1) All the isolates 1–9 obtained from the leaves of A. koraiensis were evaluated for their inhibitory effects of LPS-stimulated NO and PGE2 production in RAW 264.7 macrophages at non-toxic concentrations (Table 3).
(§2) Figure 5 Inhibitory effects of compound 7 on LPS-stimulated NO (A) and PGE2 productions (B) in RAW 264.7 macrophages. Cells were pretreated with different concentrations (25, 50, or 100 μM) of compound 7 for 1 h, then with LPS (1 μg/mL), and then were incubated for 24 h. l-N^6-(1-Iminoethyl)lysine (l-NIL, 10 μM) and N-[2-(cyclohexyloxy)-4-nitrophenyl]-methanesulfonamide (NS-398, 10 μM) were used as positive NO and PGE2 production inhibitors, respectively.
PGE2 levels in cell culture mediums were determined using EIA kits (R&D Systems, MN) as reported in the previous paper.

In data set [3] the test system is LPS-stimulated NO production in RAW 264.7 macrophages. The data set can be described thus: LPS-induced NO production in RAW 264.7 macrophages (Griess reaction). It is filed as cell-based. To be noted: for IC50 / inhibition at 100 µM: Mus musculus, RAW264.7, RAW 264.7; for IC50: LPS 1 μg/mL, 24 h; for inhibition at 100 µM: compound 100 μM and LPS 1 μg/mL, pretreated 1 h, incubated 24 h, read-out: Inhibition Rate (%) NO. The protocol:
as §1, §2
Cell viability and nitrite levels were measured using MTT and Griess reaction assays, respectively.
(In general: Nitrite, measured by Griess reagent, commonly stands in for NO production.)

Where [4] appears, read: LPS-stimulated RAW 264.7 cells, non-toxic concentrations.

“Also recorded” adds a separate entry of the source.

Consider `CC1=CC[C@@H](O)[C@@]2(C)[C@H]1[C@H](O[C@@H]1O[C@H](CO)[C@@H](O)[C@H](O)[C@H]1O)[C@H](C(C)(C)O)C[C@@H]2O` [Compound 4, (1R,5S,6S,7R,9S,10R)-1,6,9,11-tetrahydroxy-eudesm-3-ene-6-O-β-D-glucopyranoside], for which, in data set [1], the viability at 24 h, 100 μM is 102%. For the same compound, in data set [2], the IC50 is over 100 µM and the inhibition at 100 µM came out at 6.15%. Besides, in data set [3], the IC50 was over 100 µM and the inhibition at 100 µM was determined as 1.31%.
In the case of `O=C(/C=C/c1ccc(O)c(O)c1)O[C@@H]1C[C@](O)(C(=O)O)C[C@@H](OC(=O)/C=C/c2ccc(O)c(O)c2)[C@H]1O` [Compound 8, 3,5-dicaffeoylquinic acid], in data set [1], the viability at 24 h, 100 μM stood at 93.4%. Besides, the IC50 in data set [2] and in data set [3] was over 100 µM in each case. For the same compound, the inhibition at 100 µM in data set [2] was found to be 1.27%; in data set [3], 6.25%.
Turning to `CC1=CC[C@@H](O)[C@]2(C)[C@@H](OC(=O)/C=C\c3ccc(O)cc3)C[C@@H](C(C)C)[C@@H](O[C@@H]3O[C@H](CO)[C@@H](O)[C@H](O)[C@H]3O)[C@@H]12` [Compound 6, (1R,5S,6R,7S,9S,10R)-9-O-(Z-p-coumaroyl)-1,6,9-trihydroxy-eudesm-3-ene-6-O-β-D-glucopyranoside], the viability at 24 h, 100 μM in data set [1] worked out at 108%. For the same compound, in data set [2], the IC50 is over 100 µM and the inhibition at 100 µM worked out at 2.16%. Also, in data set [3], the concentration for half-maximal inhibition (IC50) was over 100 µM and the inhibition at 100 µM is 7.01%.
Turning to `CC1=CCC(OC2OC(CO)C(O)C(O)C2O)C2(C)C(O)CC(C(C)(C)O)C(OC3OC(CO)C(O)C(O)C3O)C12` [Compound 3, (1R,5S,6S,7R,9S,10S)-1,6,9,11-tetrahydroxy-eudesm-3-ene-1,6-di-O-β-D-glucopyranoside], the melting point worked out at 230 °C. For the same compound, the viability at 24 h, 100 μM in data set [1] was 94%. For the same compound, in data set [2], the IC50 is over 100 µM and the inhibition at 100 µM was determined as 10.5%. Besides, in data set [3], the IC50 was over 100 µM and the inhibition at 100 µM was determined as 4.66%.
`CC1=CCC(OC2OC(CO)C(O)C(O)C2O)C2(C)C(O)CC(C(C)C)C(OC3OC(CO)C(O)C(O)C3O)C12` [Compound 1, (1R,5S,6R,7S,9S,10S)-1,6,9-trihydroxy-eudesm-3-ene-1,6-di-O-β-D-glucopyranoside]: the melting point came to 167.2 °C. In data set [1], the viability at 24 h, 100 μM is 102%. Moreover, in data set [2], the IC50 was over 100 µM and the inhibition at 100 µM worked out at 0%. Besides, in data set [3], the IC50 was over 100 µM and the inhibition at 100 µM came out at 1.79%.
On to `CC1=CC[C@@H](O)[C@]2(C)[C@@H](OC(=O)/C=C/c3ccc(O)cc3)C[C@@H](C(C)C)[C@@H](O[C@@H]3O[C@H](CO)[C@@H](O)[C@H](O)[C@H]3O)[C@@H]12` [Compound 5, (1R,5S,6R,7S,9S,10R)-9-O-(E-p-coumaroyl)-1,6,9-trihydroxy-eudesm-3-ene-6-O-β-D-glucopyranoside], for which, in data set [1], the viability at 24 h, 100 μM was found to be 104%. Also, the IC50 in data set [2] and in data set [3] was over 100 µM throughout. Also, the inhibition at 100 µM is 0% in data set [2] and 8.39% in data set [3].
As for `CC1=CC[C@@H](O)[C@@]2(C)[C@H]1[C@H](O[C@@H]1O[C@H](CO)[C@@H](O)[C@H](O)[C@H]1O)[C@H](C(C)C)C[C@@H]2O` [Compound 2, (1R,5S,6R,7S,9S,10R)-1,6,9-trihydroxy-eudesm-3-ene-6-O-β-D-glucopyranoside], the viability at 24 h, 100 μM in data set [1] came to 105%. In data set [2], the IC50 was over 100 µM and the inhibition at 100 µM worked out at 0%. Moreover, in data set [3], the IC50 was over 100 µM and the inhibition at 100 µM was 3.2%.
Take `COc1cc(/C=C/C(=O)O[C@H]2C[C@@H](C(C)C)[C@@H](O[C@@H]3O[C@H](CO)[C@@H](O)[C@H](O)[C@H]3O)[C@H]3C(C)=CC[C@@H](O)[C@]23C)ccc1O` [Compound 7, (1R,5S,6R,7S,9S,10R)-9-O-(E-feruloyl)-1,6,9-trihydroxy-eudesm-3-ene-6-O-β-D-glucopyranoside]: the viability at 24 h, 100 μM in data set [1] turned out to be 89.3%. Besides, the “Inhibitory effect on PGE2 production (in words)” value in data set [2] (setting [4]) is given as “weak inhibitory effects; also recorded: weak inhibitory activities”. Besides, in data set [2], the IC50 was over 100 µM and the inhibition at 100 µM worked out at 41.3%. Further, the “Inhibitory effect on NO production (in words)” value in data set [3] (setting [4]) is recorded as “weak inhibitory effects; also recorded: weak inhibitory activities”. In addition, in data set [3], the midpoint of inhibition, the IC50, lay at 95.7 µM and the inhibition at 100 µM came to 53.1%.
`O=C(/C=C/c1ccc(O)c(O)c1)O[C@@H]1[C@H](O)C[C@@](O)(C(=O)O)C[C@H]1OC(=O)/C=C/c1ccc(O)c(O)c1` [Compound 9, 4,5-dicaffeoylquinic acid]: the viability at 24 h, 100 μM in data set [1] worked out at 100%. In data set [2], the IC50 was over 100 µM and the inhibition at 100 µM was found to be 20.4%. In data set [3], the IC50 was over 100 µM and the inhibition at 100 µM was determined as 4.64%.
